Assays:
[1] = test system: VEGF-expressing, murine endothelial cells (MS-1 VEGF, ATCC); test: Photodynamic cell viability by trypan blue exclusion; type: cell-based; settings: for cell viability (trypan blue exclusion) compared with Dulbecco's PBS controls: laser-exposed (647 nm, 56.5 J/cm), verteporfin 40 μg/ml, P<0.0001
Method: FIG. 3 is a graph showing the mean percent cell viability by trypan blue exclusion over eight experimental runs in 24-well culture plates for VEGF-expressing endothelial cells in Dulbecco's phosphate buffered saline (“DPBS”), cells incubated with verteporfin ([sequence]) at 40 μg/ml (“Verteporfin”), and cells incubated with verteporfin ([sequence]) conjugated to anti-VEGF antibody (“Conjugate”). Error bars indicate 1 standard deviation from the mean. The cells received either no laser treatment or were exposed to krypton-ion CW laser (647 nm) at a total light dosage of 56.5 J/cm for either 1 hour (left) or 24 hours (right).
Experiments were conducted in a line of cultured, VEGF-expressing, murine erdothelial cells (MS-1 VEGF, ATCC). Cells were grown in 24-well culture plates under standard cell culture conditions in Dulbecco's minimal essential medium (DMEM) with 10% fetal calf serum. Cells were incubated for one hour with either phosphate buffered saline solution alone, verteporfin at 40 μg/ml, or verteporfin-anti-VEGF antibody conjugate (FIG. 2A). All cells were washed twice with phosphate buffered saline following incubation to remove unbound photosensitizer. The photosensitizer was excited by exposing selected wells to the krypton-ion CW laser (647 nm) at a total light dosage of 56.5 J/cm, which is the recommended ophthalmic light dosage (FIG. 2A). For each treatment condition, there were laser-exposed and non-exposed groups. Following laser exposure, cells were incubated for either 1 or 24 hours, and cell viability was assessed using trypan blue exclusion.

[2] = test system: MS-1 vascular endothelial cells; test: Binding kinetics: fluorescence intensity of labeled MS-1 cells in confocal micrographs; type: cell-based, murine; settings: within the first 10 minutes of labeling (FIG. 7)
Method: FIG. 7 is a graph of fluorescence intensity of conjugate-labeled and VISUDYNE-labeled MS-1 vascular endothelial cells as a function of incubation time. The fluorescence intensity of confocal micrographs was determined with the “histogram” analysis tool of the ImagePro image processing software program (Media Cybernetics; Silver Springs, Md.). Intensity is expressed as the accumulated pixel counts in the image.
In order to provide a more quantitative comparison of the binding kinetics of the conjugate and the native VISUDYNE, the fluorescence intensity of the MS-1 cells labeled for varying durations was measured in a series of confocal micrographs using the “histogram” tool of ImagePro image processing program (Media Cybernetics; Silver Springs, Md.). […] Accordingly, if the laser activation were to be applied within 10 minutes of application of the conjugate, essentially maximum photodynamic effect would be realized. Targets not expressing the VEGF factor would not be as strongly labeled. This improved selectivity of the conjugate for VEGF-expressing targets is a distinct advantage over the native VISUDYNE.

In the case of verteporfin, the “cell viability (trypan blue exclusion) compared with Dulbecco's PBS controls” value ([1]; 1 hour after laser) is reported as “large losses of viability”, the “cell viability (trypan blue exclusion) compared with Dulbecco's PBS controls” value ([1]; 24 hours after laser) is reported as “large losses of viability” and the “cell viability without laser exposure” value ([1]; no laser, possible toxicity or low-level activation by ambient light) is reported as “reduced viability”. The “binding to the target cells (fluorescence intensity)” value [2] was “approximately 50 % of maximum binding”.
